# Patent US9999612B2, “PPARs agonist activity enhancing drug” (Tsujimoto Chemical Co., Ltd., priority 2012, dated 2018)
# Key:
# [1] = test system: PPARγ; assay: PPARγ agonist activity, reporter gene assay using COS-1 cells; type: cell-based; conditions: for PPARγ agonist activity compared with control substance 10 μM Trogliazone: 50 μM
# Method: (§1) The agonist activities of PPARα, PPARδ and PPARγ, respectively, were visually verified by a reporter gene assaying method using COS-1 cells so as to evaluate them. The evaluation method is as below.
# (§2) The COS-1 cells were collected by trypsinization, centrifuged (1000 rpm, 4° C., 3 min.), and then seeded on a 60 mm Petri dish for cultivation in a density of 6×10^5 cells/well. After cultivation at 37° C. under 5% CO2 for 24 hours, cells were transformed using […]® Transfection Reagent (QIAGEN®). EC buffer ([…]), pPPARα-GAL4 (0.25 μg), pPPARδ-GAL4 (0.25 μg) or pPPARγ-GAL4 (0.25 μg), p17M2G (1 μg), pSEAP control vector (1 μg) were put into a 1.5 ml Eppendorf tube, to which 18 μl of Enhancer was added, and stirred by a vortex for 1 second. This was left to stand at room temperature for 3 minutes, to which 25 μl of Effectene was added, stirred by the voltex for 10 seconds, and left to stand at room temperature for 7 minutes. Simultaneously, the medium for transformation in the 60 mm Petri dish for cultivation was removed, to which […] of medium was added to exchange the medium. Seven minutes later, 1 ml of medium was added to the Eppendorf tube, suspended twice, dropped to a 60 mm Petri dish for cultivation, and cultivated 37° C. under 5% CO2 for 16 hours.
# (§3) The cells were collected by trypsinization after 16 hours, centrifuged (1000 rpm, 4° C., 3 min.), and then suspended in 6 ml of medium, and seeded on a 96-well plate at 125 μl/well. The sample solution was added at 1.25 μl/well after 2-3 hours, and cultivated 37° C. under 5% CO2 for 24 hours. Then the medium was collected at 25 μl/well, a secreted alkaline phosphatase (SEAP) activity was measured using GREAT ESCAPE™ SEAP (Clontech Laboratories, Inc.) kit. As the outline, 1× dilution buffer was added at 25 μl/well, mildly stirred, sealed with a scotch tape, and incubated at 65° C. for 30 minutes. Subsequently, it was cooled at 4° C., and returned to room temperature, then an assay buffer was added at 90 μl/well. It was left to stand at room temperature for 5 minutes, to which 10 μl of MUP solution was added at 10 μl/well. At room temperature, it was left to stand in a dark room for 1 hour, and then fluorescence intensity based on 4-methylumbelliferyl phosphate (Ex=360 nm, Em=460 nm) was measured.
# (§4) Concentrations of the samples to be evaluated are 50 μM and 5 μM.
# [2] = test system: PPARδ; assay: PPARδ agonist activity, reporter gene assay using COS-1 cells; type: cell-based
# Method: as §1, §2, §3, §4
# [3] = test system: PPARα; assay: PPARα agonist activity, reporter gene assay using COS-1 cells; type: cell-based; conditions: for PPARα agonist activity, ratio to WY14643 50 μM (= 1.00): FIG. 1; for difference between PPARα values of the R and S bodies: 25 μM, FIG. 6; for PPARα agonist activity: study of aliphatic chain length of δ-lactones
# Method: as §1, §2, §3
# (§5) In order to measure the activity for PPARα, luciferase activity measuring cocktail (Invitrogen) was added to other 96 well plate at 100 μl/well to measure the emission intensity. Compensation among each well was performed by dividing the measured value of the luciferase activity by the SEAP activity value.
# 7 to 9, i.e. C9 to C11 in which the α and β positions in the lactone ring of the raw material are substituted by double bonds, which are the compounds of the present invention. […] The structure of carbon number C8 lacks one side chain in the carbon number C9, and the structure of carbon number C12 adds one side chain to the carbon number C11, in which no double bond is provided. The carbon numbers C9 to C11 represents numbers of the carbon atoms in the compounds of Chemical formulae 4 to 6 and Chemical formulae 7 to 9.
# [4] = biological target: T1, PPARα (Homo sapiens, UniProt Q07869); assay: Activity test using HepG2 cells: ACS and CPT1A gene expression (PPARα agonist activity); type: cell-based; conditions: C11 at 50 μM and 25 μM, FIG. 4
# T1 construct: endogenous in cells; host or cells: HepG2
# T1 sequence (Q07869 1-468): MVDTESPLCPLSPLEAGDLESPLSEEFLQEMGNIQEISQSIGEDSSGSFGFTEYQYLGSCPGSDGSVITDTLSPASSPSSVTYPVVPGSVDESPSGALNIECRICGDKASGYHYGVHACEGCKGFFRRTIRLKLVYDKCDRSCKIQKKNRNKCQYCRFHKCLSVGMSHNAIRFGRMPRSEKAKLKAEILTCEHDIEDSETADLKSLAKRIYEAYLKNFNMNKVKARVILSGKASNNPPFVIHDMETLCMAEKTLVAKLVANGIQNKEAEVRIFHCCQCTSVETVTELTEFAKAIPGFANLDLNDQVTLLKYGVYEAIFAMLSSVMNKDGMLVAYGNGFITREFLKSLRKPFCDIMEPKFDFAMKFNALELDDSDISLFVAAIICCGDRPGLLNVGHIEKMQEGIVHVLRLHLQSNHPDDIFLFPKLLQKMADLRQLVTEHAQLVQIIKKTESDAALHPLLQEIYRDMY
# Method: Next, a novel compound C11 was focused, and further activity tests using HepG2 cells were carried out. […] In the figure, GAPDH represents a housekeeping indicator, ACS represents expression of lipid metabolism gene, and CPT1A represents expression of lipolytic gene. As a drug for comparison, Bezafibrate known as PPARα agonist activity enhancer was used with 50 μM dilution, and the compound C11 of the present invention was used at concentrations of 50 μM and 25 μM.
# [5] = test system: PPARγ; assay: Differentiation induction method using 3T3-L1 cells: fat cell differentiation induction-associated gene expression (Adiponectine); type: cell-based, mouse; conditions: 25 μM, 12 μM and 6 μM, FIG. 5
# Method: Subsequently, an agonist activity test on fat cell differentiation induction-associated genes was similarly carried out for C11, and the results are shown in FIG. 5. In this test, the differentiation induction method using 3T3-L1 cells was conducted. For preparing samples, a plate having a total of 24 depressions of 6 lines×4 rows was used, and a known mouse fat cells was used to observe PPARγ agonist activities. In relation to 5 samples shown in the figure, in order from the right, a sample without insulin administration, a sample dosed with 1.7 μM of insulin, a sample dosed with 25 μM of C11 compound, a sample dosed with 12 μM of C11 compound and a sample dosed with 6 μM of C11 compound are shown. CAPDH is a housekeeping indicator, C/EBPα is a control, and Adiponectine is an expressed gene.
# [6] = test system: PPARs; assay: PPARs agonist activity, collective evaluation (PPARα, δ and γ); type: cell-based; conditions: for difference between activities of the R body and the S body, three PPARs: FIG. 6, three tests averaged
# Method: as §1, §2
# The cells were collected by trypsinization after 16 hours, centrifuged (1000 rpm, 4° C., 3 min.), and then suspended in 6 ml of medium, and seeded on a 96-well plate at 125 μl/well. […] Then the medium was collected at 25 μl/well, a secreted alkaline phosphatase (SEAP) activity was measured using GREAT ESCAPE™ SEAP (Clontech Laboratories, Inc.) kit. […] At room temperature, it was left to stand in a dark room for 1 hour, and then fluorescence intensity based on 4-methylumbelliferyl phosphate (Ex=360 nm, Em=460 nm) was measured.
# as §5
# [7] = study of aliphatic chain length of δ-lactones
smiles,measurement,setting,value
"CCCC1CCCC(=O)O1 (stereo not shown) [C8, 6-propyltetrahydro-2H-pyran-2-one]",PPARγ agonist activity,"[1]; 5 μM, FIG. 3",little activities
same,PPARγ agonist activity compared with control substance 10 μM Trogliazone,[1]; FIG. 3,considerably lower activities than the values of C9 to C11
same,PPARδ agonist activity,"[2]; 5 μM, FIG. 2",little activity
same,"PPARα agonist activity, ratio to WY14643 50 μM (= 1.00)",[3]; 5 μM,can hardly be expected for the activity
"CCCCCCC1CC=CC(=O)O1 (stereo not shown) [C11, 6-hexyl-5,6-dihydro-2H-pyran-2-one]","gene expression (ACS, CPT1A) compared with Bezafibrate 50 μM",[4],at least equal to or greater than that of Bezafibrate
same,activity on fat cell differentiation induction-associated genes (Adiponectine expression),[5],effective activities
"CCCCCCCC1CCCC(=O)O1 (stereo not shown) [C12, 6-heptyltetrahydro-2H-pyran-2-one]",PPARγ agonist activity,"[1]; 5 μM, FIG. 3",little activities
same,PPARγ agonist activity compared with control substance 10 μM Trogliazone,[1]; FIG. 3,considerably lower activities than the values of C9 to C11
same,PPARδ agonist activity,"[2]; 5 μM, FIG. 2",little activity
same,"PPARα agonist activity, ratio to WY14643 50 μM (= 1.00)",[3]; 5 μM,did not show strong activity
same,"PPARα agonist activity, ratio to WY14643 50 μM (= 1.00)",[3]; 50 μM,did not show strong activity
"CCCCC[C@@H]1CC=CC(=O)O1 [R body, (R)-6-pentyl-5,6-dihydro-2H-pyran-2-one]","difference between activities of the R body and the S body, three PPARs",[6],no significant difference
same,difference between PPARα values of the R and S bodies,[3],significant difference
"CCCCC[C@H]1CC=CC(=O)O1 [S body, (S)-6-pentyl-5,6-dihydro-2H-pyran-2-one]","difference between activities of the R body and the S body, three PPARs",[6],no significant difference
same,difference between PPARα values of the R and S bodies,[3],significant difference
Cc1cccc(Nc2cc(Cl)nc(SCC(=O)O)n2)c1C [WY14643],"PPARα agonist activity, ratio to WY14643 50 μM (= 1.00)",[3]; 50 μM,1.00
"CCCCCC1CCCC(=O)O1 (stereo not shown) [δ-decanolactone, 6-pentyltetrahydro-2H-pyran-2-one]",PPARγ agonist activity,[1]; [7],strong agonist activity
same,PPARδ agonist activity,[2]; [7],strong agonist activity
same,"activity of lactone structures (ring size comparison γ, δ, ϵ)","[6]; comparison of γ-, δ- and ϵ-decanolactone",relatively strong activity
same,PPARα agonist activity,[3],strong agonist activity
"CCCCC1CCCC(=O)O1 (stereo not shown) [δ-nonanolactone, 6-butyltetrahydro-2H-pyran-2-one]",PPARγ agonist activity,[1]; [7],strong agonist activity
same,PPARδ agonist activity,[2]; [7],strong agonist activity
same,PPARα agonist activity,[3],strong agonist activity
"CCCCCCC1CCCC(=O)O1 (stereo not shown) [δ-undecanolactone, 6-hexyltetrahydro-2H-pyran-2-one]",PPARδ agonist activity,[2]; [7],strong agonist activity
same,PPARα agonist activity,[3],strong agonist activity
